Legend:
[1] = biological target: ALK4(h) (Homo sapiens, UniProt P36896); assay: Kinase profiling of R428; type: biochemical; conditions: 100 μM ATP, lower number = more robust inhibition
Method: (§1) The efficiency of the AXL inhibitor R428 for targeting different kinases was assessed by Kinase Profiling Services using 100 μM ATP concentration (EMD Millipore). R428 was tested at 1 and 10 μM. Table IV lists the kinases profiled along with the efficiency in targeting the kinases with a lower number indicating a more robust inhibition of a particular kinase.

[2] = biological target: CDK1/cyclinB (Hh) (Homo sapiens, UniProt P06493); assay: Kinase profiling of R428; type: biochemical; conditions: 100 μM ATP, lower number = more robust inhibition
Method: as §1

[3] = biological target: CHK1(h) (Homo sapiens, UniProt O14757); assay: Kinase profiling of R428; type: biochemical; conditions: 100 μM ATP, lower number = more robust inhibition
Method: as §1

[4] = biological target: CLK2(h) (Homo sapiens, UniProt P49760); assay: Kinase profiling of R428; type: biochemical; conditions: 100 μM ATP, lower number = more robust inhibition
Method: as §1

[5] = biological target: EGFR(h) (Homo sapiens, UniProt P00533); assay: Kinase profiling of R428; type: biochemical; conditions: 100 μM ATP, lower number = more robust inhibition
Method: as §1

[6] = biological target: IGF-1R(h) (Homo sapiens, UniProt P08069); assay: Kinase profiling of R428; type: biochemical; conditions: 100 μM ATP, lower number = more robust inhibition
Method: as §1

[7] = biological target: IKKβ(h) (Homo sapiens, UniProt O14920); assay: Kinase profiling of R428; type: biochemical; conditions: 100 μM ATP, lower number = more robust inhibition
Method: as §1

[8] = biological target: IR(h) (Homo sapiens, UniProt P06213); assay: Kinase profiling of R428; type: biochemical; conditions: 100 μM ATP, lower number = more robust inhibition
Method: as §1

[9] = biological target: IRAK4(h) (Homo sapiens, UniProt Q9NWZ3); assay: Kinase profiling of R428; type: biochemical; conditions: 100 μM ATP, lower number = more robust inhibition
Method: as §1

[10] = biological target: Met(h) (Homo sapiens, UniProt P08581); assay: Kinase profiling of R428; type: biochemical; conditions: 100 μM ATP, lower number = more robust inhibition
Method: as §1

[11] = biological target: NEK2(h) (Homo sapiens, UniProt P51955); assay: Kinase profiling of R428; type: biochemical; conditions: 100 μM ATP, lower number = more robust inhibition
Method: as §1

[12] = biological target: PAK4(h) (Homo sapiens, UniProt O96013); assay: Kinase profiling of R428; type: biochemical; conditions: 100 μM ATP, lower number = more robust inhibition
Method: as §1

[13] = biological target: PDGFRβ(h) (Homo sapiens, UniProt P09619); assay: Kinase profiling of R428; type: biochemical; conditions: 100 μM ATP, lower number = more robust inhibition
Method: as §1

[14] = biological target: PKBα(h) (Homo sapiens, UniProt P31749); assay: Kinase profiling of R428; type: biochemical; conditions: 100 μM ATP, lower number = more robust inhibition, read-out: efficiency in targeting PKBα(h)
Method: as §1

[15] = biological target: PKCα(h) (Homo sapiens, UniProt P17252); assay: Kinase profiling of R428; type: biochemical; conditions: 100 μM ATP, lower number = more robust inhibition
Method: as §1

[16] = biological target: PKCβ1(h) (Homo sapiens, UniProt P05771); assay: Kinase profiling of R428; type: biochemical; conditions: 100 μM ATP, lower number = more robust inhibition
Method: as §1

[17] = biological target: Plk1(h) (Homo sapiens, UniProt P53350); assay: Kinase profiling of R428; type: biochemical; conditions: 100 μM ATP, lower number = more robust inhibition
Method: as §1

[18] = biological target: SAPK3(h) (Homo sapiens, UniProt P53778); assay: Kinase profiling of R428; type: biochemical; conditions: 100 μM ATP, lower number = more robust inhibition
Method: as §1

[19] = biological target: SAPK4(h) (Homo sapiens, UniProt O15264); assay: Kinase profiling of R428; type: biochemical; conditions: 100 μM ATP, lower number = more robust inhibition
Method: as §1

[20] = biological target: TrkC(h) (Homo sapiens, UniProt Q16288); assay: Kinase profiling of R428; type: biochemical; conditions: 100 μM ATP, lower number = more robust inhibition
Method: as §1

[21] = biological target: ZIPK(h) (Homo sapiens, UniProt O43293); assay: Kinase profiling of R428; type: biochemical; conditions: 100 μM ATP, lower number = more robust inhibition
Method: as §1

[22] = tested on: MAFA expression; assay: Stage 7 treatment, real-time PCR of MAFA (Example 6); type: cell-based, human; conditions: Stage 7, day 7, 2 μM in Stage 7 medium, H1-derived cells, mRNA
Method: (§2) Cells of the human embryonic stem cell line H1 (WA01) were seeded as single cells at 1×10^5 cells/cm^2 on MATRIGEL™ (1:30 dilution) coated dishes in E8 media. At about 70 to 80% confluency, the cultures were washed in 1× incomplete DPBS followed by incubation with 1× TrypLET™ Express Enzyme for 3 to 5 minutes at 37° C. The released cells were rinsed with E8 and spun at 1000 rpm for 5 minutes. The resulting cell pellet was resuspended in E8 supplemented with 10 μM Y-27632 and the single cell suspension was seeded at approximately 1.3 to 1.5×10^5 cells/cm^2. The cultures were fed every day with E8 medium and differentiation, according to the following protocol, was initiated 48 hrs. following seeding resulting in an about 90% starting confluency.
(§3) Stage 6 cells were cultured for seven days in BLAR medium supplemented with a 1:100 dilution of ITS-X; 20 mM glucose (final); 1.5 g/L sodium bicarbonate; 2% FAF-BSA; 10 μg/ml of heparin, 10 μM ZnSO4, 1 μM T3 as 3,3′, 5-triiodo-L-thyronine sodium salt, 10 μM ALK5 inhibitor II, 1 mM N-acetyl cysteine. […]
(§4) At Stage 7, day 7, mRNA was collected and expression of MAFA, UCN3, PDX1, NKX6.1, insulin and G6PC2 evaluated as compared to undifferentiated human stem cells. […]

[23] = tested on: UCN3 expression; assay: Stage 7 treatment, real-time PCR of UCN3 (Example 6); type: cell-based, human; conditions: Stage 7, day 7, 2 μM in Stage 7 medium, H1-derived cells, mRNA
Method: as §2, §3, §4

[24] = tested on: G6PC2 expression; assay: Stage 7 treatment, real-time PCR of G6PC2 (Example 6); type: cell-based, human; conditions: Stage 7, day 7, 2 μM in Stage 7 medium, H1-derived cells, mRNA
Method: as §2, §3, §4

IRAK4(h), sequence (Q9NWZ3 whole entry): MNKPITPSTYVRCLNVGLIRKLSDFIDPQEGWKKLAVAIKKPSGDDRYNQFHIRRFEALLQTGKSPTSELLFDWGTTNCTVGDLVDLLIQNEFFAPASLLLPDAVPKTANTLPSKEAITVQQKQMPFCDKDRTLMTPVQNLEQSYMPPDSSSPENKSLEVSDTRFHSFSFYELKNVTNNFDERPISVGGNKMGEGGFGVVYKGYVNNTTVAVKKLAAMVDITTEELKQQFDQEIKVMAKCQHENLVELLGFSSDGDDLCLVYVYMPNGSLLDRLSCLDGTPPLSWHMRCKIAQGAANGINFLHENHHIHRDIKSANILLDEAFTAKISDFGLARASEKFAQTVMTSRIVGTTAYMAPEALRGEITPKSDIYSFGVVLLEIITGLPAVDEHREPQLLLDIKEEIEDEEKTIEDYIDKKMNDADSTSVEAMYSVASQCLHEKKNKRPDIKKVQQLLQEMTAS
CLK2(h), sequence (P49760 whole entry): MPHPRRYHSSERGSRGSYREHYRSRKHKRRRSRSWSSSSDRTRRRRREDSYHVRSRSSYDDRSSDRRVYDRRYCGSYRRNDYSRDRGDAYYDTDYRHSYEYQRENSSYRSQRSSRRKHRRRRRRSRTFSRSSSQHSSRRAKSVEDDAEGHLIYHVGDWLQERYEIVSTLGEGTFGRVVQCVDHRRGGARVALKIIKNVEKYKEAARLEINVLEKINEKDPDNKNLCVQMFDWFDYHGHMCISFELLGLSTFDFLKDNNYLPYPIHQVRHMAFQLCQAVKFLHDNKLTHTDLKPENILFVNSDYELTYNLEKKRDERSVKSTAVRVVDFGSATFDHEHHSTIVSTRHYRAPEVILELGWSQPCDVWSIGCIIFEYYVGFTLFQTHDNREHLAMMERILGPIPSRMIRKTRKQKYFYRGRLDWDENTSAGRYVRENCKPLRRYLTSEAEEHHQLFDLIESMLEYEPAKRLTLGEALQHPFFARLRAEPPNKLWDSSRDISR
IKKβ(h), sequence (O14920 whole entry): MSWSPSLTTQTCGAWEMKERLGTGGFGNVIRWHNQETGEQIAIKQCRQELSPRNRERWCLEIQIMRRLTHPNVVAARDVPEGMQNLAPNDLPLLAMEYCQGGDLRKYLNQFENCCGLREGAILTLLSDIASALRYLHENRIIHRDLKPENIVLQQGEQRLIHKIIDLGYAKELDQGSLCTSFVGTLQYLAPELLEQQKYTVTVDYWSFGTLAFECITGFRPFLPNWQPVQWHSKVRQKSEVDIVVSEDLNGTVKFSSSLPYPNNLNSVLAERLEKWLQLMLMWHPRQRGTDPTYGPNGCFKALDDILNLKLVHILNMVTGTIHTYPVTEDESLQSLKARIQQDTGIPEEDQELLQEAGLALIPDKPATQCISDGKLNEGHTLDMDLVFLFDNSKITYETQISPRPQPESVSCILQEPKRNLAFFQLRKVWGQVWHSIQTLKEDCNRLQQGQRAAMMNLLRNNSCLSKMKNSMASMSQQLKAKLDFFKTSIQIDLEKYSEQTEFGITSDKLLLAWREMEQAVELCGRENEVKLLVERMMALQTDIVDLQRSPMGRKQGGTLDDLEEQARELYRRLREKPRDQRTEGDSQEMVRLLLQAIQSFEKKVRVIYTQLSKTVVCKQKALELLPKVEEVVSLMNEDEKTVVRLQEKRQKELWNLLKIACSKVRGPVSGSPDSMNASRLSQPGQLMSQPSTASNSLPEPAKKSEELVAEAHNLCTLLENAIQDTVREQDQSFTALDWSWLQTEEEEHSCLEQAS
CDK1/cyclinB (Hh), sequence (P06493 whole entry): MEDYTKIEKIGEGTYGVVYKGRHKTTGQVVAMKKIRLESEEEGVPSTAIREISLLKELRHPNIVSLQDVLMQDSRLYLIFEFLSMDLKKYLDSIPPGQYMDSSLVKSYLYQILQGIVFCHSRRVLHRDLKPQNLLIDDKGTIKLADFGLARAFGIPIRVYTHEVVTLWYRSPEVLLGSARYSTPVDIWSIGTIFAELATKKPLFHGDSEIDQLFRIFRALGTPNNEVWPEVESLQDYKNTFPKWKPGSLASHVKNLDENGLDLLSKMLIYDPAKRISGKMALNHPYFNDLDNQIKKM
CDK1/cyclinB (Hh), sequence (P14635 whole entry partner): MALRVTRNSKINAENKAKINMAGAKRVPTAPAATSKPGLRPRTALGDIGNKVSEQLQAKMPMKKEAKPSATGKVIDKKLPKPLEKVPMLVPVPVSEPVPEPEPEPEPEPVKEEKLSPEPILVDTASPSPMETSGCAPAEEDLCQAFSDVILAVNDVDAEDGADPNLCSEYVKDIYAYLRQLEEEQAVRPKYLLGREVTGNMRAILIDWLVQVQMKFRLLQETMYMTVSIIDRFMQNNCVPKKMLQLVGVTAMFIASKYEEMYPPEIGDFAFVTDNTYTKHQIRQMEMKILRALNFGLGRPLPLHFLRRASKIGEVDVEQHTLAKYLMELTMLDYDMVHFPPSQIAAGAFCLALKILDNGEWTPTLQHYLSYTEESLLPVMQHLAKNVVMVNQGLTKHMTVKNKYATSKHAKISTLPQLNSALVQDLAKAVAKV
CHK1(h), sequence (O14757 whole entry): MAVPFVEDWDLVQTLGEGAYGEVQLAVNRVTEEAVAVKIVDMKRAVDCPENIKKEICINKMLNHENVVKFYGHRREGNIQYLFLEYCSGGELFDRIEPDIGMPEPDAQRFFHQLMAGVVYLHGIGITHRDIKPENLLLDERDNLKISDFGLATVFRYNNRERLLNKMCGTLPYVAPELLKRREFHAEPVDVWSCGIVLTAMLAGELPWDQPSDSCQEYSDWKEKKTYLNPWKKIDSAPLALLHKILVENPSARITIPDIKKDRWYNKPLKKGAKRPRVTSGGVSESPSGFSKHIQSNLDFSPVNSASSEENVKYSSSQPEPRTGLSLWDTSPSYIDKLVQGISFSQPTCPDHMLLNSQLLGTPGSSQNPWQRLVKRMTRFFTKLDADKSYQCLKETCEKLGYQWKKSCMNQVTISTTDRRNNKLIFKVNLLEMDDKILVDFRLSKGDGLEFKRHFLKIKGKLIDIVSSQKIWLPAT
NEK2(h), sequence (P51955 whole entry): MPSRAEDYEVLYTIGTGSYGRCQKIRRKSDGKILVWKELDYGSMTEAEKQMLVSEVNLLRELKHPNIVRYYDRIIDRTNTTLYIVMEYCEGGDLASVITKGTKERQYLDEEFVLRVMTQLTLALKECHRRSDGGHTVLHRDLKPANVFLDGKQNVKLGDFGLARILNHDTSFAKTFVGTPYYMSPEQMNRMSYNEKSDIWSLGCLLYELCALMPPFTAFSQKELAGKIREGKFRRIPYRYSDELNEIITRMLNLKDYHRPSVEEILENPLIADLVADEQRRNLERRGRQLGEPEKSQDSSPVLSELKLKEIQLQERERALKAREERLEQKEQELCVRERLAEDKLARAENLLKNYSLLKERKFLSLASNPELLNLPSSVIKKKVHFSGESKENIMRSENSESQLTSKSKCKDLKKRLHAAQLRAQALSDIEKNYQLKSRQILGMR
PAK4(h), sequence (O96013 whole entry): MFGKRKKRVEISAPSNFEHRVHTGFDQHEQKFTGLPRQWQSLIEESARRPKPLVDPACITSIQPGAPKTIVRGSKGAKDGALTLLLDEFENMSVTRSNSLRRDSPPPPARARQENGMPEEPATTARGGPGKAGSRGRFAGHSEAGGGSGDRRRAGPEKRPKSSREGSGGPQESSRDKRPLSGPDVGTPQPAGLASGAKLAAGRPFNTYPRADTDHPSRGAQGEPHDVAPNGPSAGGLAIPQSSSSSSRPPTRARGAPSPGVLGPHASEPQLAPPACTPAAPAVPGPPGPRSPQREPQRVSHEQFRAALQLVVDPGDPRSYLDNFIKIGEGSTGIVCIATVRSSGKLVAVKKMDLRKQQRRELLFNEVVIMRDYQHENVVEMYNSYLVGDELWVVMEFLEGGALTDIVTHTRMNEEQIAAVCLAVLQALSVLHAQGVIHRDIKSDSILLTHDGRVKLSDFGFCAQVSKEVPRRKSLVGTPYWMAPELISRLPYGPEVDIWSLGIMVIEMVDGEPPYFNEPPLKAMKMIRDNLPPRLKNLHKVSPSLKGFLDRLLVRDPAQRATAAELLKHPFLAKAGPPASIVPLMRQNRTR
Plk1(h), sequence (P53350 whole entry): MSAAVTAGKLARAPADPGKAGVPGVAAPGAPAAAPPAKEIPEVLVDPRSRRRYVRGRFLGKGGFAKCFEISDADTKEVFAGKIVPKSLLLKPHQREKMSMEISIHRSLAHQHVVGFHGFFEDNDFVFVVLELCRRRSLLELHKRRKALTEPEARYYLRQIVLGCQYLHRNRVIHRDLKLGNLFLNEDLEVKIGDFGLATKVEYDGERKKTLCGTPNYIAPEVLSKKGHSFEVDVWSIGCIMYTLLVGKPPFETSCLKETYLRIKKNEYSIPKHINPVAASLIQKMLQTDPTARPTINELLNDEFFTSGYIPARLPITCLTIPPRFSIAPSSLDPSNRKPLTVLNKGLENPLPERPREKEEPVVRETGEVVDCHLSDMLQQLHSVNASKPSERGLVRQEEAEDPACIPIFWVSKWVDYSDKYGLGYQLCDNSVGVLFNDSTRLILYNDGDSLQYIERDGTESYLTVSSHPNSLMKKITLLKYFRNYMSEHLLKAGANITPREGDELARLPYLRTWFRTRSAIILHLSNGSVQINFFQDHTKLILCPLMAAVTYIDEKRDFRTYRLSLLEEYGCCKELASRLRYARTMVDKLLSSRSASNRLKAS
SAPK3(h), sequence (P53778 whole entry): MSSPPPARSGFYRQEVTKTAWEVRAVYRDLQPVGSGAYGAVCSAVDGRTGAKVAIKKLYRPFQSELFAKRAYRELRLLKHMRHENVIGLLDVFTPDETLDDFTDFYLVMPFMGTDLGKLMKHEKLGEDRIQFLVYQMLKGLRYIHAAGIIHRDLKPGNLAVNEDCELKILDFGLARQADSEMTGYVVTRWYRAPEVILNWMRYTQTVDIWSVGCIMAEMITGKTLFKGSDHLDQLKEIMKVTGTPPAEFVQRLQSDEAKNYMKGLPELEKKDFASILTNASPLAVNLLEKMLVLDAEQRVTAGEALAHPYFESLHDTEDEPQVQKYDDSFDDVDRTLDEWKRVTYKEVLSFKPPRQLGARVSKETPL

Q: What does the source list for `Nc1nc(Nc2ccc3c(c2)CC[C@@H](N2CCCC2)CC3)nn1-c1cc2c(nn1)-c1ccccc1CCC2` [R428, 1H-1,2,4-Triazole-3,5-diamine, 1-(6,7-dihydro-5H-benzo[6,7]cyclohepta[1,2-c]pyridazin-3-yl) N3-[(7S)-6,7,8,9-tetrahydro-7-(1-pyrrolidinyl)-5H-benzocyclohepten-2-yl]-]?
A: efficiency in targeting ALK4(h) ([1]; R428 @ 1 μM): 84; efficiency in targeting ALK4(h) ([1]; R428 @ 10 μM): 48; efficiency in targeting CDK1/cyclinB (Hh) ([2]; R428 @ 1 μM): 101; efficiency in targeting CDK1/cyclinB (Hh) ([2]; R428 @ 10 μM): 88; efficiency in targeting CHK1(h) ([3]; R428 @ 1 μM): 71; efficiency in targeting CHK1(h) ([3]; R428 @ 10 μM): 23; efficiency in targeting CLK2(h) ([4]; R428 @ 1 μM): 78; efficiency in targeting CLK2(h) ([4]; R428 @ 10 μM): 28; efficiency in targeting EGFR(h) ([5]; R428 @ 1 μM): 89; efficiency in targeting EGFR(h) ([5]; R428 @ 10 μM): 40; efficiency in targeting IGF-1R(h) ([6]; R428 @ 1 μM): 93; efficiency in targeting IGF-1R(h) ([6]; R428 @ 10 μM): 58; efficiency in targeting IKKβ(h) ([7]; R428 @ 1 μM): 86; efficiency in targeting IKKβ(h) ([7]; R428 @ 10 μM): 53; efficiency in targeting IR(h) ([8]; R428 @ 1 μM): 83; efficiency in targeting IR(h) ([8]; R428 @ 10 μM): 24; efficiency in targeting IRAK4(h) ([9]; R428 @ 1 μM): 94; efficiency in targeting IRAK4(h) ([9]; R428 @ 10 μM): 51; efficiency in targeting Met(h) ([10]; R428 @ 1 μM): 49; efficiency in targeting Met(h) ([10]; R428 @ 10 μM): -1; efficiency in targeting NEK2(h) ([11]; R428 @ 1 μM): 60; efficiency in targeting NEK2(h) ([11]; R428 @ 10 μM): 10; efficiency in targeting PAK4(h) ([12]; R428 @ 1 μM): 97; efficiency in targeting PAK4(h) ([12]; R428 @ 10 μM): 73; efficiency in targeting PDGFRβ(h) ([13]; R428 @ 1 μM): 37; efficiency in targeting PDGFRβ(h) ([13]; R428 @ 10 μM): 21; activity at 1 µM ([14]; R428 @ 1 μM): 87%; activity at 10 µM ([14]; R428 @ 10 μM): 57%; efficiency in targeting PKCα(h) ([15]; R428 @ 1 μM): 101; efficiency in targeting PKCα(h) ([15]; R428 @ 10 μM): 96; efficiency in targeting PKCβ1(h) ([16]; R428 @ 1 μM): 102; efficiency in targeting PKCβ1(h) ([16]; R428 @ 10 μM): 95; efficiency in targeting Plk1(h) ([17]; R428 @ 1 μM): 83; efficiency in targeting Plk1(h) ([17]; R428 @ 10 μM): 65; efficiency in targeting SAPK3(h) ([18]; R428 @ 1 μM): 106; efficiency in targeting SAPK3(h) ([18]; R428 @ 10 μM): 108; efficiency in targeting SAPK4(h) ([19]; R428 @ 1 μM): 94; efficiency in targeting SAPK4(h) ([19]; R428 @ 10 μM): 91; efficiency in targeting TrkC(h) ([20]; R428 @ 1 μM): 47; efficiency in targeting TrkC(h) ([20]; R428 @ 10 μM): 13; efficiency in targeting ZIPK(h) ([21]; R428 @ 1 μM): 97; efficiency in targeting ZIPK(h) ([21]; R428 @ 10 μM): 46; MAFA expression [22]: increases MAFA expression; UCN3 expression [23]: reduces other beta cell maturation markers; G6PC2 expression [24]: reduces other beta cell maturation markers
